Assay results taken from PMC6268935, “Antiatherogenic Properties of Acetone Extract of Alpinia zerumbet Seeds” (Molecules, 2012).
pIC50: −log10 of the molar value. Converted amounts (≈) assume the structure as drawn. Read-outs that look alike come from different tables or passages of the source.

Key:
[1] = molecular target: T1, porcine pancreatic lipase (PL) (Sus scrofa, UniProt P00591); test: Pancreatic lipase inhibition assay (p-NPB hydrolysis); format: biochemical; conditions: for IC50: read-out: IC50 pancreatic lipase (PL) inhibition (converted)
T1 sequence (P00591 1-450): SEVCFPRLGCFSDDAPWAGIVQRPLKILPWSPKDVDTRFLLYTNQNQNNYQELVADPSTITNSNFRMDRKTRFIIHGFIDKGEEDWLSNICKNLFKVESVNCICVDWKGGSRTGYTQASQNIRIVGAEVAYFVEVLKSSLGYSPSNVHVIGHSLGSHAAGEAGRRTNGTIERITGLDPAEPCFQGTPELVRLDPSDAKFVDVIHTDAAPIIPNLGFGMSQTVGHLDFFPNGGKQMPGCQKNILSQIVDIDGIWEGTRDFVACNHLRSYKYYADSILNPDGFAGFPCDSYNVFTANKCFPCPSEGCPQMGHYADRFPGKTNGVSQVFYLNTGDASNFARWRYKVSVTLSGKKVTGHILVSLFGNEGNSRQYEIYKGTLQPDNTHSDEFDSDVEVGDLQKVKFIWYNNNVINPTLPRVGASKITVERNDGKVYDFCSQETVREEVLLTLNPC
Method: The ability of the different parts of crude extracts to inhibit PL was measured as described previously, with slight modifications. Briefly, an enzyme buffer was prepared by the addition of 30 μL (10 units) of PL solution (in 10 mM MOPS and 1 mM EDTA, pH 6.8) to 850 μL of Tris buffer (100 mM Tris-HCl and 5 mM CaCl2, pH 7.0). […] The reaction was allowed to proceed for 15 min at 37 °C after addition of 20 μL of the substrate solution (10 mM p-NPB in dimethyl formamide). The lipase activity was determined by measuring the hydrolysis of p-NPB to p-nitrophenol at 400 nm using microplate reader. Inhibition of the lipase activity was expressed as the percentage decrease in the OD when PL was incubated with the test compounds.

[2] = molecular target: T2, 15-Lipoxygenase from soybean (15-LO) (Glycine max, UniProt P08170); test: 15-Lipoxygenase inhibition assay (linoleic acid substrate); format: biochemical; conditions: for IC50 / IC50 15-LO inhibition: n = 3; for IC50: read-out: IC50 15-LO inhibition (converted)
T2 construct: purchased Cayman Chemical Company
T2 sequence (P08170 whole entry): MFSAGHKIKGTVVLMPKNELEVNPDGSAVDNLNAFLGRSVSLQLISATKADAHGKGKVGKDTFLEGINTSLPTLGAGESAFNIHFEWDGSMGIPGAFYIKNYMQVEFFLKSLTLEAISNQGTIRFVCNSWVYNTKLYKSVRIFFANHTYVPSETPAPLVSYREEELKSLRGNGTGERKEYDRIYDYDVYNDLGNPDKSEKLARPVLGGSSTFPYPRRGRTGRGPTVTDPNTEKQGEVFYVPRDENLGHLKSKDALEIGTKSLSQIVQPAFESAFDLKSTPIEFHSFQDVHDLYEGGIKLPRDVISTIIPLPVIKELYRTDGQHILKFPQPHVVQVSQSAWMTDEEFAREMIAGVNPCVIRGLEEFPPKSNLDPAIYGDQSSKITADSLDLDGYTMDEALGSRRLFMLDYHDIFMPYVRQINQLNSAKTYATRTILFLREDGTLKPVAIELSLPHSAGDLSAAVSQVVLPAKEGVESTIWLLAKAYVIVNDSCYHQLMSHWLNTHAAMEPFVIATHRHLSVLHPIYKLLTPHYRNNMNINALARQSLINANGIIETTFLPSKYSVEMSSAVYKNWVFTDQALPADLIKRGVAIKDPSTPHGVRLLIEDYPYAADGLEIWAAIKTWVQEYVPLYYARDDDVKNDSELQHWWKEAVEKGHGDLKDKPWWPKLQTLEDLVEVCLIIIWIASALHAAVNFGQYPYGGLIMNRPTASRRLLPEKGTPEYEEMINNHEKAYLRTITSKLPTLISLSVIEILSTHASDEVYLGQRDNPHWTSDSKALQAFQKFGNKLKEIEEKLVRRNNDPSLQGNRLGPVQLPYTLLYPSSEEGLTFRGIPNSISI
Method: The final enzyme concentration was 500 units/mL and the test samples were dissolved in DMSO solutions. All measurements were carried out at least twice, in each instance using caffeic and ferulic acids, a well-known inhibitor of 15-LO, as positive controls.

[3] = tested on: low-density lipoprotein cholesterol from human plasma (LDL); test: LDL oxidation inhibition assay (CuSO4-induced, TBARS); format: biochemical; conditions: copper-induced LDL oxidation, n = 3
Method: The oxidation of LDL was investigated as described by Rattan and Arad. […] The reaction was stopped by adding 50 μL of 1 M EDTA and placing the sample at −20 °C for TBA reactive substance (TBARS) assay. The generation of malonyldialdehyde (MDA) equivalents during LDL oxidation was estimated by the TBARS assay using the method of Steinbrecher et al.. LDL oxidation was carried out as described above. After oxidation, LDL was mixed with 1.5 mL of 0.67% TBA and 1.5 mL of 20% TCA. After placing samples in boiling water (100 °C) for 30 min, the reaction product was kept for 30 min at 25 °C and centrifuged for 15 min at 4 °C. The supernatants were read on a spectrophotometer at 532 nm, blank containing 220 μg/mL LDL only. The yields of MDA were used as a standard and the results were expressed as nanomoles of MDA equivalents.

[4] = tested on: rat hepatic stellate cells; set-up: method as in PMID 15787259; conditions: cited from earlier work
human cancer cell line = tested on: human cancer cell line; set-up: method as in PMID 19382453; conditions: cited from earlier work
[5] = normal human; cited from earlier work
[6] = tested on: accelerated atherosclerosis in native hearts; set-up: method as in PMID 8419015; conditions: native hearts of a rabbit heart transplant model; cited from earlier work
tyrosinase mushroom = tyrosinase mushroom (Agaricus bisporus, UniProt C7FF04); test: Anti-tyrosinase activity assay; format: biochemical; conditions: n = 3
Chain of tyrosinase mushroom (C7FF04 1-392): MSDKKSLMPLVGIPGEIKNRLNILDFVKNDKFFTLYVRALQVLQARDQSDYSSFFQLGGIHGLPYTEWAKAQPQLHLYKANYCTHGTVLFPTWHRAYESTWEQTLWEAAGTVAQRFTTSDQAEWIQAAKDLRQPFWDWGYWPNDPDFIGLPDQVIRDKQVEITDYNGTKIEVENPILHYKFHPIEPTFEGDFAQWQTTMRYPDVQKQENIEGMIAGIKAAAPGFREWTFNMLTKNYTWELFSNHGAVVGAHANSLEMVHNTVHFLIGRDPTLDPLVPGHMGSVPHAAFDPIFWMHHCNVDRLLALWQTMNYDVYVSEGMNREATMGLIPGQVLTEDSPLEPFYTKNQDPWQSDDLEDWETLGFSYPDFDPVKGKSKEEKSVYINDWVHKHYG
Method: Tyrosinase activity inhibition was determined by the method as described previously [29]. In brief, sample extracts were dissolved in methanol to make the different concentrations (μg/mL). The 96-well plate was set up in the following order; 120 μL of phosphate buffer (20 mM, pH 6.8), 20 μL of sample and 20 μL of tyrosinase mushroom (500 units/mL in 20 mM phosphate buffer). After incubation at 25 °C for 15 min, reaction was initiated by adding 20 μL of 0.85 mM L-tyrosine solution to each well. The enzyme activity was determined by measuring the absorbance at 470 nm using microplate reader (BioRad, Benchmark microplate reader, Hertfordshire, UK). […] The percentage of tyrosinase inhibition was calculated as follows:
where, A = absorbance of the control with enzyme; B = absorbance of the control without enzyme; C = absorbance of the test sample with enzyme; D = absorbance of the test sample without enzyme.

[7] = tested on: enzymes in the cholesterol biosynthetic pathway; conditions: cited from earlier work

CC(C)CCC[C@@H](C)[C@H]1CC[C@H]2[C@@H]3CC(=O)C4=CC(=O)CC[C@]4(C)[C@H]3CC[C@]12C [cholest-4-ene-3,6-dione]
IC50 ([1]; n = 3): 48.9 µM
IC50 [2]: 85.8 µM
IC50 LDL oxidation inhibition [3]: 16.12 ± 1.43 µg/mL (≈ 40.4 µM)
inhibitory activity on proliferation of rat hepatic stellate cells [4]: inhibitory activity
cytotoxic activity against human cancer cell line (human cancer cell line): cytotoxic activity

C[C@]12CC[C@H](O)CC1=CC[C@@H]1[C@@H]2CC[C@]2(C)C(=O)CC[C@@H]12 [dehydroepiandrosterone, 3β-hydroxy-5-androsten-17-one]
effect on serum LDL level [5]: reduce serum LDL level
effect on development of accelerated atherosclerosis [6]: inhibited the development of accelerated atherosclerosis

CC[C@H](CC[C@@H](C)[C@H]1CC[C@H]2[C@@H]3CC=C4C[C@@H](O)CC[C@]4(C)[C@H]3CC[C@]12C)C(C)C [sitosterol]
IC50 tyrosinase inhibition (tyrosinase mushroom): 187.77 ± 0.04 µg/mL (≈ 453 µM)
IC50 pancreatic lipase (PL) inhibition ([1]; n = 3): 99.99 ± 1.86 µg/mL (≈ 241 µM)
IC50 15-LO inhibition [2]: 123.34 ± 1.94 µg/mL (≈ 297 µM)
IC50 LDL oxidation inhibition [3]: 97.76 ± 0.77 µg/mL (≈ 236 µM)
inhibition of enzymes in the cholesterol biosynthetic pathway / cholesterol biosynthesis [7]: could not inhibit

COc1cc(/C=C/C(=O)O)ccc1O [ferulic acid, reference compound]
IC50 15-LO inhibition [2]: 54.79 ± 1.12 µg/mL (≈ 282 µM)

CC(C)[C@H](C)CC[C@@H](C)[C@H]1CC[C@H]2[C@@H]3CC=C4C[C@@H](O)CC[C@]4(C)[C@H]3CC[C@]12C [campesterol]
pIC50 [1]: 3.49
pIC50 [2]: 3.44
IC50 LDL oxidation inhibition [3]: 149.02 ± 1.93 µg/mL (≈ 372 µM)
inhibition of enzymes in the cholesterol biosynthetic pathway / cholesterol biosynthesis [7]: could not inhibit

O=c1c(O)c(-c2ccc(O)c(O)c2)oc2cc(O)cc(O)c12 [quercetin, reference compound]
IC50 LDL oxidation inhibition [3]: 22.56 ± 0.70 µg/mL (≈ 74.6 µM)

CC[C@H](/C=C/[C@@H](C)[C@H]1CC[C@H]2[C@@H]3CC=C4C[C@@H](O)CC[C@]4(C)[C@H]3CC[C@]12C)C(C)C [stigmasterol]
IC50 ([1]; n = 3): 303 µM
IC50 [2]: 182 µM
IC50 LDL oxidation inhibition [3]: 50.01 ± 0.77 µg/mL (≈ 121 µM)
inhibition of enzymes in the cholesterol biosynthetic pathway / cholesterol biosynthesis [7]: inhibitory effects
